# Reference: PMC9873984, “Membrane cholesterol regulates inhibition and substrate transport by the glycine transporter, GlyT2” (Life Science Alliance, 2023)
# Biological target: T1, WT GlyT2 (Homo sapiens, UniProt Q9Y345)
# T1 sequence (Q9Y345 1-797): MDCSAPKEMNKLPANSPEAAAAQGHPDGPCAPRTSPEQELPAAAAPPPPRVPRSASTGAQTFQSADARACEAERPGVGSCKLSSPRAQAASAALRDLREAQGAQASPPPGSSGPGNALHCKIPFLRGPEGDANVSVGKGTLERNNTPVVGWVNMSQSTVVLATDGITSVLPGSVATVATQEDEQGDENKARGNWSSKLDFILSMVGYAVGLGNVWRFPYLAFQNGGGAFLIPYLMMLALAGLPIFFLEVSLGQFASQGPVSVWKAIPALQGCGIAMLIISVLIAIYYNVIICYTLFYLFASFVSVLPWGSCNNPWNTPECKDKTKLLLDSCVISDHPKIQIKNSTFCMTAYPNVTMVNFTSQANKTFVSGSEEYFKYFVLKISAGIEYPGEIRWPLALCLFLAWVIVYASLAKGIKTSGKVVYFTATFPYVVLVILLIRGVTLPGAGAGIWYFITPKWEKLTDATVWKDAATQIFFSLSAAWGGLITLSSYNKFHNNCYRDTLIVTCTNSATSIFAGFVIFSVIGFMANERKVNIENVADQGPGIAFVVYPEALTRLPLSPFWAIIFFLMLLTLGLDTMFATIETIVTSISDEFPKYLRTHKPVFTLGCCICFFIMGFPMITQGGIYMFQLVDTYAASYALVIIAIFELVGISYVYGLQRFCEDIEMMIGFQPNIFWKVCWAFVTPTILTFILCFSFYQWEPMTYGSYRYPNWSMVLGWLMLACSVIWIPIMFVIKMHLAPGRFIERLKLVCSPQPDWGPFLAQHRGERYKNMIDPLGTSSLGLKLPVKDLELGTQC
# Test: Inhibitor concentration–responses on glycine transport currents, two-electrode voltage clamp (control and MβCD-treated oocytes)
# Assay type: cell-based
# Parameters: expressed in transfected cells; host or cells: Xenopus laevis oocytes injected with in vitro transcribed RNA (pOTV vector)
# Conditions: for Reduction of potency after cholesterol depletion: MβCD-treated vs control oocytes
# Method: Individual oocytes were incubated at 32°C for 30 min in 15 mM MβCD or γCD, suspended in frog Ringer’s solution.
# Because of the slowly reversible nature of the compounds tested, inhibitor concentration–responses were performed cumulatively. An EC50 concentration of glycine was applied until a stable transport current was reached. EC50 concentrations of glycine were used to produce reliable currents for each transporter, and as the inhibitors are non-competitive, application of varying glycine concentrations is unlikely to affect their activity. Increasing concentrations of inhibitors were co-applied with glycine with each concentration producing a distinct plateau before the subsequent concentration was applied. Inhibitor concentration–responses were limited to a maximum concentration of 3 µM to mitigate the risk of changes to the free drug concentration because of micelle formation. Currents after the plateau of each inhibitor concentration were normalized to the current produced by application of glycine alone and fit using the method of least squares: Y=Bottom+(Top−Bottom)/(1+10^[X−LogIC50]), where X is log [inhibitor], Y is current normalized to glycine in the absence of inhibitor, and Top and Bottom are the maximal and minimal plateaus, respectively. The method of least squares was constrained to have the bottom value >0 and the hill slope as −1, enabling the calculation of IC50 values and the extent of inhibition produced by the maximal concentration applied.
# IC50 values are presented as the mean and 95% confidence interval, whereas inhibition values are presented as the mean ± SEM. Data sets are n ≥ 5 from two batches of oocytes.
# As the inhibitors assayed here are slowly reversible, inhibitor concentration–responses were unable to be performed on the same cell after treatment with MβCD. Thus, GlyT2 expression was tested by applying a maximal glycine concentration (300 µM) before treatment with MβCD to deplete membrane cholesterol. After MβCD treatment, oocytes were returned to the electrophysiology set-up and washed for 10 min in recording buffer to remove cyclodextrins. […] After successful depletion, inhibitor concentration–responses were performed as described above (see “Inhibitor concentration–response—mutagenesis” in the Materials and Methods section).
# [1] = MβCD-treated oocytes (15 mM, 30 min, 32 °C), 3 µM
# [2] = MβCD-treated oocytes (15 mM, 30 min, 32 °C; cholesterol depleted)
# [3] = WT GlyT2 in Xenopus laevis oocytes, 3 μM, Table S10
# [4] = WT GlyT2 in Xenopus laevis oocytes, glycine EC50 co-applied, Table S10
Inhibition at 3 μM [1] [%],IC50 [2] [nM],Reduction of potency after cholesterol depletion,Inhibition at 3 μM [3] [%],IC50 [4] [nM],"Inhibition at 1 µM (column head 3 μM, footnote b) (MβCD-treated oocytes (15 mM, 30 min, 32 °C))","Inhibition at 1 µM (column head 3 μM, footnote b) (WT GlyT2 in Xenopus laevis oocytes, Table S10)","Inhibition at 3 μM (Control oocytes, 3 µM, Table S7) [%]","IC50 (WT GlyT2 in Xenopus laevis oocytes, glycine EC50 co-applied, Table S10, listed as OLLys) [nM]",Compound
64.9 ± 3.8,619,2.4 fold,69.4 ± 3.8,262,,,,,"CCCCCCCC/C=C\CCCCCCCC(=O)N[C@@H](CC(C)C)C(=O)O [Oleoyl-L-Leucine, oleoyl-L-leucine]"
78 ± 4,130,does not alter the potency,76.2 ± 2.3,103,,,,,"CCCCCCCC/C=C\CCCCCCCC(=O)N[C@@H](Cc1c[nH]c2ccccc12)C(=O)O [Oleoyl-L-Tryptophan, oleoyl-L-tryptophan]"
,800,does not alter the potency,,520,60.5 ± 5.3^b %,55.5 ± 5.2^b %,,,"CCCCCCCC/C=C\CCCCCCCC(=O)O[C@H](CC(=O)[O-])C[N+](C)(C)C [Oleoyl-L-Carnitine, oleoyl-L-carnitine]"
91.5 ± 1.5,269,2.3 fold,86.6 ± 1.9,215,,,93.6 ± 1.9,220,"CCCCCCCC/C=C\CCCCCCCC(=O)N[C@@H](CCCCN)C(=O)O [Oleoyl-L-Lysine, oleoyl-L-lysine]"
